Measured values: US8809316B2, “Use of immunosuppressant compounds in a new indication” (Novartis AG, priority 2008, dated 2014)

How the values were obtained:
Type in all cases: in vivo, Lewis rats
[1] = tested on: Experimental Autoimmune Neuritis (EAN) rats; assay: EAN clinical (neurological) score, suppressive treatment
Body weight of EAN rats = assay: Body weight of EAN rats
[2] = tested on: sciatic nerves of EAN rats; assay: Immunohistochemistry of inflammatory cell infiltration in sciatic nerves of EAN rats; details: for Area of immunoreactivity/area of sciatic nerves (%) for B cells (OX22+) / Area of immunoreactivity/area of sciatic nerves (%) for Macrophages (ED1+) / Area of immunoreactivity/area of sciatic nerves (%) for T cells (W3/13+): Day 16, EAN rats
Procedure: (§1) To evaluate inflammatory cell infiltration and pathological changes in the PNS, five compound A-treated rats (at both concentrations) and five control EAN rats from Day 16 were sacrificed. Rats were deeply anaesthetized with ether and perfused intracardially with 4° C., 4% paraformaldehyde in PBS. Left and right sciatic nerves were quickly removed and post-fixed in 4% formaldehyde overnight at 4° C. Sciatic nerves were cut into two equally long segments, embedded in paraffin, serially sectioned (3 μm) and mounted on silan-covered slides.
After dewaxing, cross-sections of sciatic nerves were boiled (in a 600 W microwave oven) for 15 min in citrate buffer (2.1 g sodium citrate/L, pH 6). Endogenous peroxidase was inhibited with 1% H2O2 in methanol for 15 min. Sections were incubated with 10% normal pig serum (Biochrom, Berlin, Germany) to block non-specific binding of immunoglobulins and then with the following monoclonal antibodies: W3/13 (1:50; Serotec, Oxford, UK) for T lymphocytes, OX22 (1:200; Serotec, Oxford, UK) for B cells, ED1 for activated macrophages (1:100; Serotec, Oxford, UK). Antibody binding to tissue sections was visualized with biotinylated IgG F(ab)2 secondary antibody fragments (rabbit anti-mouse or rabbit anti-goat; 1:400; DAKO, Hamburg, Germany). Subsequently, sections were incubated with a Streptavidin-Avidin-Biotin complex (DAKO, Hamburg, Germany), followed by development with diaminobenzidine (DAB) substrate (Fluka, Neu-Ulm, Germany). Finally, sections were counterstained with Maier's Hemalum.
To evaluate immunostaining data, the percentages of areas of immunoreactivity (IR) to areas of sciatic nerve cross-sections were calculated. Images of sciatic nerve cross-sections were captured under 50× magnification using Nikon Coolscope (Nikon, Dusseldorf, Germany) with fixed parameters. Images were analyzed using MetaMorph Offline 7.1 (Molecular Devices, Toronto, Canada). Areas of IR were selected by colour threshold segmentation and all parameters were fixed for all images. Areas of sciatic nerve cross-sections were manually selected. For each EAN rat, four cross-sections from root and middle levels of both sides were analyzed. Results were given as arithmetic means of percentages of areas of IR to areas of sciatic nerve cross-sections and standard errors of means (SEM).

[3] = tested on: sciatic nerves of EAN rats; assay: Luxol Fast Blue (LFB) staining, mean histological score of sciatic nerves of EAN rats; details: for Mean Histological Score: LFB staining, scale 0-3, sciatic nerves, Day 16
Procedure: as §1
The routine Luxol Fast Blue (LFB) staining was applied to show myelin. Histological changes between Compound A and control EAN rats were compared by an established semi-quantitative method. Briefly, four cross-sections from root and middle level of both sides of EAN rats were analyzed. All perivascular areas present in cross-sections were evaluated by two observers unaware of the treatment, and the degree of pathological alteration was graded semiquantitatively on the following scale: 0=normal perivascular area; 1=mild cellular infiltrate adjacent to the vessel; 2=cellular infiltration plus demyelination in immediate proximity to the vessel; and 3=cellular infiltration and demyelination throughout the section. Results were given as mean histological score (Hartung et al., 1988).

[4] = 3 mg/kg intragastric once daily
[5] = 10 mg/kg intragastric once daily

With `CCc1cc(/C(C)=N/OCc2ccc(C3CCCCC3)c(C(F)(F)F)c2)ccc1CN1CC(C(=O)O)C1` [Compound A, 1-{4-[1-(4-Cyclohexyl-3-trifluoromethyl-benzyloxyimino)-ethyl]-2-ethyl-benzyl}-azetidine-3-carboxylic acid] the “Day of maximal neurological scores” value ([1]; days from immunisation, control maximum at Day 13) was 15 Day, the “Day of full recovery of rats” value ([1]; days from immunisation, control recovered by Day 22) was no more than 19 days and the “Day at which (greatly reduced) neurological signs were seen” value ([1]; days from immunisation, oral once daily until Day 22, control onset Day 9) was 14 Day. For the same compound, the “Effect on clinical signs of EAN (in words)” value ([1]; relative to the water/cmc vehicle, FIGS. 1A and 1B) was “almost prevented the development of clinical signs of EAN”, the “Weight loss during disease (in words)” value (Body weight of EAN rats; higher dosage suspension (10 mg/kg), FIG. 2B) was “small weight loss between days 11 and 12, followed by weight gain” and the “Weight loss during disease (in words)” value (Body weight of EAN rats; lower compound A suspension (3 mg/kg), Day 11 to 16, FIG. 2B) was “reduced level of weight loss”. The “Area of immunoreactivity/area of sciatic nerves (%) for B cells (OX22+)” value [2, 4] was 0.025%, the “Area of immunoreactivity/area of sciatic nerves (%) for Macrophages (ED1+)” value [2, 4] was 0.20% and the “Area of immunoreactivity/area of sciatic nerves (%) for T cells (W3/13+)” value [2, 4] was 0.08%. For the same compound, the “Area of immunoreactivity/area of sciatic nerves (%) for B cells (OX22+)” value [2, 5] was 0.021%, the “Area of immunoreactivity/area of sciatic nerves (%) for Macrophages (ED1+)” value [2, 5] was 0.11% and the “Area of immunoreactivity/area of sciatic nerves (%) for T cells (W3/13+)” value [2, 5] was 0.04%. The “Infiltration of T cells, B cells and macrophages in sciatic nerves (in words)” value ([2]; EAN rats, Day 16) was “significantly suppressed infiltration”, the “Mean Histological Score” value ([3]; 3 mg/kg) was 0.51 and the “Mean Histological Score” value ([3]; 10 mg/kg) was 0.25. The “Mean histological scores measured by LFB staining (in words)” value ([3]; Compound A-treated versus control EAN rats) was “markedly lower”.
